Source: PubChem BioAssay (NCI)
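Grown in 96-well plates, cells were treated for 48 hours with each compound at five concentrations. Insufficient inhibition: endpoint recorded as highest concentration tested. TGI: concentration producing complete growth inhibition.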

Columns and labels:
Test in all cases: DTP human tumour cell line panel, 48 h
TK-10 renal = test system: TK-10 renal
A498 renal = test system: A498 renal
786-0 renal = test system: 786-0 renal
MCF7 breast = test system: MCF7 breast
LOX IMVI melanoma = test system: LOX IMVI melanoma
SK-OV-3 ovarian = test system: SK-OV-3 ovarian
KM12 colon = test system: KM12 colon
CCRF-CEM leukemia = test system: CCRF-CEM leukemia
SF-295 CNS = test system: SF-295 CNS
SK-MEL-28 melanoma = test system: SK-MEL-28 melanoma
NCI-H460 lung = test system: NCI-H460 lung
SK-MEL-2 melanoma = test system: SK-MEL-2 melanoma
CAKI-1 renal = test system: CAKI-1 renal
SK-MEL-5 melanoma = test system: SK-MEL-5 melanoma
UACC-257 melanoma = test system: UACC-257 melanoma
DU-145 prostate = test system: DU-145 prostate
M14 melanoma = test system: M14 melanoma

SMILES | TGI (TK-10 renal) [µM] | TGI (A498 renal) [µM] | TGI (786-0 renal) [µM] | TGI (MCF7 breast) [µM] | TGI (LOX IMVI melanoma) [µM] | TGI (SK-OV-3 ovarian) [µM] | TGI (KM12 colon) [µM] | TGI (CCRF-CEM leukemia) [µM] | TGI (SF-295 CNS) [µM] | TGI (SK-MEL-28 melanoma) [µM] | TGI (NCI-H460 lung) [µM] | TGI (SK-MEL-2 melanoma) [µM] | TGI (CAKI-1 renal) [µM] | TGI (SK-MEL-5 melanoma) [µM] | TGI (UACC-257 melanoma) [µM] | TGI (DU-145 prostate) [µM] | TGI (M14 melanoma) [µM]
CC1OC(OC2C(O)COC(OC3C(C)OC(OC4C(OC(=O)[C@]56CCC(C)(C)C[C@@H]5C5=CCC7[C@@]8(C)C[C@H](O)[C@H](OC9OC(CO)C(O)C(OC%10OC(CO)C(O)C(O)C%10O)C9O)[C@@](C)(CO)[C@@H]8CC[C@@]7(C)[C@]5(C)CC6)OCC(O)C4O)C(O)C3OC3OCC(O)C(O)C3O)C2O)C(O)C(O)C1O (stereo partly specified) | 22.7 | 5 | 17.7 | 43.5 | 29.6 | 29.4 | 33.5 | 25.2 | 9.81 | 5.17 | 34.8 | 11.7 | 16.3 | 15 | 16.8 | 19.7 | 3.58
CC1=CCC[C@@H]2[C@@](C)(Cc3cc(O)ccc3O)[C@H](C)CC[C@@]12C | 22.2 | 32.7 | 21.7 | 18.7 | 17.7 | 26 | 16.4 | 15.1 | 20 | 25.5 | 22.4 | 27.9 | 25.7 | 19.1 | 26.2 | 27.1 | 15.7
Cc1c(CCCl)c(N=[N+]=[N-])n2c(nc3ccccc32)c1C#N | 3.02 | 3.85 | 1.63 | 2.14 | 2.37 | 5.07 | 3.27 | 0.987 | 3.54 | 3.27 | 3.32 | 3.48 | 3 | 1.35 | 3.53 | 6.3 | 2.77
